Key:
[1] = target: Ribosomal protein S6 kinase alpha-2 (Homo sapiens) (UniProt Q15349); details: Compound concentration 1000.0 nM
[2] = target: Serine/threonine-protein kinase Chk1 (Homo sapiens) (UniProt O14757); details: Compound concentration 1000.0 nM
[3] = target: Proto-oncogene tyrosine-protein kinase Src (Homo sapiens) (UniProt P12931); details: Compound concentration 1000.0 nM
[4] = target: RAC-gamma serine/threonine-protein kinase (Homo sapiens) (UniProt Q9Y243); details: Compound concentration 1000.0 nM
[5] = target: T1, Alpha-2A adrenergic receptor (Homo sapiens) (UniProt P08913); details: Compound concentration 10.0 uM
T1 sequence (whole entry): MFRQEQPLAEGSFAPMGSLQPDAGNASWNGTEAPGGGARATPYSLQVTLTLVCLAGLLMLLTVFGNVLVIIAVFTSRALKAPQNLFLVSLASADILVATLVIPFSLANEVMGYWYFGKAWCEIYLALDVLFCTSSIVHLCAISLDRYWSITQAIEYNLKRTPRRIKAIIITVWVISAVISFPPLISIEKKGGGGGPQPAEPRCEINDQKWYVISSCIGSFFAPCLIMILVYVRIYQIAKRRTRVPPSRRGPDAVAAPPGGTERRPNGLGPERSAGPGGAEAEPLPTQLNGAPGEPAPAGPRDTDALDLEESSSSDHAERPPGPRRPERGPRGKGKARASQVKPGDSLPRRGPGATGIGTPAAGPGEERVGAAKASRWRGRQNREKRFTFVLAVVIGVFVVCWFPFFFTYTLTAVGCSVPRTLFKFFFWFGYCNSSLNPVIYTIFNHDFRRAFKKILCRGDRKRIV

[6] = target: Dual specificity tyrosine-phosphorylation-regulated kinase 2 (Homo sapiens) (UniProt Q92630); details: Compound concentration 1000.0 nM
[7] = target: Glycogen synthase kinase-3 alpha (Homo sapiens) (UniProt P49840); details: Compound concentration 1000.0 nM
[8] = target: Dual specificity protein kinase CLK2 (Homo sapiens) (UniProt P49760); details: Compound concentration 1000.0 nM
[9] = system: Receptor-type tyrosine-protein kinase FLT3 (Homo sapiens), P36888 [D835Y]; details: Compound concentration 1000.0 nM
[10] = target: Serine/threonine-protein kinase Nek9 (Homo sapiens) (UniProt Q8TD19); details: Compound concentration 1000.0 nM
[11] = system: Hepatocyte growth factor receptor (Homo sapiens), P08581 [M1250T]; details: Compound concentration 1000.0 nM
[12] = target: Cyclin-dependent kinase 11A (Homo sapiens) (UniProt Q9UQ88); details: Compound concentration 1000.0 nM
Cyclin-dependent kinase 11A (Homo sapiens), sequence (Q9UQ88 whole entry): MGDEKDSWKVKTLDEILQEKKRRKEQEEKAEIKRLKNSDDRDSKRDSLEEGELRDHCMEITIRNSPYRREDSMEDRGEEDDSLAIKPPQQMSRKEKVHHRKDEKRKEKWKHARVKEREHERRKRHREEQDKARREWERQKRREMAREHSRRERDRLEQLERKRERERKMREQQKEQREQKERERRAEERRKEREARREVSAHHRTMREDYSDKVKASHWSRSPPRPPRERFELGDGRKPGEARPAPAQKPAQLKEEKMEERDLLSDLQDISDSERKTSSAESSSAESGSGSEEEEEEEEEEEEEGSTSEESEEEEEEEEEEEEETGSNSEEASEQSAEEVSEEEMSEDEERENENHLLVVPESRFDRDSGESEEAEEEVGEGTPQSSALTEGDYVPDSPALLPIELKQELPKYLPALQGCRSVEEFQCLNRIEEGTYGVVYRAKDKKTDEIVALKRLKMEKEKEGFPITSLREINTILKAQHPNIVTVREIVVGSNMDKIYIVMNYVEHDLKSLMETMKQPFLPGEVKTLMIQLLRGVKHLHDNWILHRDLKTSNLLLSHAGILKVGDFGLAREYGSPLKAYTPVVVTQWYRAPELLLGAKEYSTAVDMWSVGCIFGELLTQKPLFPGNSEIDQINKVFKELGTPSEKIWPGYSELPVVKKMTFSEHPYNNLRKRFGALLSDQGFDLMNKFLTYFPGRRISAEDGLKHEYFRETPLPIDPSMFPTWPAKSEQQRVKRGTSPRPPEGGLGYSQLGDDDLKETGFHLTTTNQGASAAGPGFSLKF

[13] = system: ALK tyrosine kinase receptor (Homo sapiens), Q9UM73 [L1196M]; details: Compound concentration 1000.0 nM
[14] = target: Mitogen-activated protein kinase 8 (Homo sapiens) (UniProt P45983); details: Compound concentration 1000.0 nM
[15] = target: Ephrin type-A receptor 7 (Homo sapiens) (UniProt Q15375); details: Compound concentration 1000.0 nM
Ephrin type-A receptor 7 (Homo sapiens), sequence (Q15375 28-998 limits assumed): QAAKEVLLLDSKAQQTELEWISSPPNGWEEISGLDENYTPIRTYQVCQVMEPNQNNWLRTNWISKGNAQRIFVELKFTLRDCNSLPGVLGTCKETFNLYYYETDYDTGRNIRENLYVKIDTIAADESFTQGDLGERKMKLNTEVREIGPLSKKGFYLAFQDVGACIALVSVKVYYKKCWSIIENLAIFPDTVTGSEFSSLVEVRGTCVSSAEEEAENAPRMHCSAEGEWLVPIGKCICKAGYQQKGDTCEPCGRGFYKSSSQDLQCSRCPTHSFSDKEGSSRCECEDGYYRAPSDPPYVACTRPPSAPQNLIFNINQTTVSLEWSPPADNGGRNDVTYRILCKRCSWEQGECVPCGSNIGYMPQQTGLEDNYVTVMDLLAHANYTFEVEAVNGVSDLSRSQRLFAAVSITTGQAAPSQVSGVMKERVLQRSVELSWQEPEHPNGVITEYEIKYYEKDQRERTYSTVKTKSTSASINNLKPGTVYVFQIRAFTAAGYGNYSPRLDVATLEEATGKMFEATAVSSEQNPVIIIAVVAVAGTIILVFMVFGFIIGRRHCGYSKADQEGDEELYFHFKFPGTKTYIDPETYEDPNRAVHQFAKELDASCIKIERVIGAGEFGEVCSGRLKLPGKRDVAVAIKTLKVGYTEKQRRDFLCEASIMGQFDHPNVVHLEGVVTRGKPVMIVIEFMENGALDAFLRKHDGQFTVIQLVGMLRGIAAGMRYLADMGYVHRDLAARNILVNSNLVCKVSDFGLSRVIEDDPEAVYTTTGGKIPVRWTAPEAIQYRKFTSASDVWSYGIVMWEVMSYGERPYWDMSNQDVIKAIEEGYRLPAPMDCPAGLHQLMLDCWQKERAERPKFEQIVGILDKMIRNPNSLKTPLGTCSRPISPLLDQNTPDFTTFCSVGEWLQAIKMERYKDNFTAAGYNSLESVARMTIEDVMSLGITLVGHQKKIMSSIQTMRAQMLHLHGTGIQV

[16] = target: Mitogen-activated protein kinase kinase kinase 13 (Homo sapiens) (UniProt O43283); details: Compound concentration 1000.0 nM
Mitogen-activated protein kinase kinase kinase 13 (Homo sapiens), sequence (O43283 whole entry): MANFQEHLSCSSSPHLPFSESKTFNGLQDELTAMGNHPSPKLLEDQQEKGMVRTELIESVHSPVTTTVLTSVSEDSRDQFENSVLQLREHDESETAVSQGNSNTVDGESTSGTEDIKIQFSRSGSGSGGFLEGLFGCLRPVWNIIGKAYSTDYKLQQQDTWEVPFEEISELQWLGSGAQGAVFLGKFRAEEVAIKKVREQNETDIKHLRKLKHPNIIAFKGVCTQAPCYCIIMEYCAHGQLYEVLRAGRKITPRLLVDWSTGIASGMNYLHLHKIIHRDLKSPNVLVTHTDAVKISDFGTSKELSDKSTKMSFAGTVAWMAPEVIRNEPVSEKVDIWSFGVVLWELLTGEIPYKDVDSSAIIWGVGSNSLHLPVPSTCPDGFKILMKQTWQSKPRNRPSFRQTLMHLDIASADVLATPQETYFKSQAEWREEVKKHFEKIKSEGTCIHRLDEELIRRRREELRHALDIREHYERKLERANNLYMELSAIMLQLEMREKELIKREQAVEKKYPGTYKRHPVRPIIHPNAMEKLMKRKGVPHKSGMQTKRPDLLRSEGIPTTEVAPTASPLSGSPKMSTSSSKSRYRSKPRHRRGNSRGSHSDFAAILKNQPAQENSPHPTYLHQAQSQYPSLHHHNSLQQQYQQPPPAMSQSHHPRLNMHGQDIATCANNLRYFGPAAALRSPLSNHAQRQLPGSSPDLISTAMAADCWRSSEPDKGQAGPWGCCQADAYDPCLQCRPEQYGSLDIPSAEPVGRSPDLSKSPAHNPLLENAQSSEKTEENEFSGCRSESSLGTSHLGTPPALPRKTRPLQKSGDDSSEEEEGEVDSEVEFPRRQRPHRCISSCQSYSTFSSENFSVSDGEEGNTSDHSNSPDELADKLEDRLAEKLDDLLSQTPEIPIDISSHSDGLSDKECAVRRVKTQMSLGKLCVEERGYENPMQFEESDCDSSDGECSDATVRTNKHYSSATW

[17] = target: Protein kinase C iota type (Homo sapiens) (UniProt P41743); details: Compound concentration 1000.0 nM
[18] = target: Dual specificity mitogen-activated protein kinase kinase 4 (Homo sapiens) (UniProt P45985); details: Compound concentration 1000.0 nM
[19] = target: Ephrin type-B receptor 3 (Homo sapiens) (UniProt P54753); details: Compound concentration 1000.0 nM
Ephrin type-B receptor 3 (Homo sapiens), sequence (P54753 whole entry): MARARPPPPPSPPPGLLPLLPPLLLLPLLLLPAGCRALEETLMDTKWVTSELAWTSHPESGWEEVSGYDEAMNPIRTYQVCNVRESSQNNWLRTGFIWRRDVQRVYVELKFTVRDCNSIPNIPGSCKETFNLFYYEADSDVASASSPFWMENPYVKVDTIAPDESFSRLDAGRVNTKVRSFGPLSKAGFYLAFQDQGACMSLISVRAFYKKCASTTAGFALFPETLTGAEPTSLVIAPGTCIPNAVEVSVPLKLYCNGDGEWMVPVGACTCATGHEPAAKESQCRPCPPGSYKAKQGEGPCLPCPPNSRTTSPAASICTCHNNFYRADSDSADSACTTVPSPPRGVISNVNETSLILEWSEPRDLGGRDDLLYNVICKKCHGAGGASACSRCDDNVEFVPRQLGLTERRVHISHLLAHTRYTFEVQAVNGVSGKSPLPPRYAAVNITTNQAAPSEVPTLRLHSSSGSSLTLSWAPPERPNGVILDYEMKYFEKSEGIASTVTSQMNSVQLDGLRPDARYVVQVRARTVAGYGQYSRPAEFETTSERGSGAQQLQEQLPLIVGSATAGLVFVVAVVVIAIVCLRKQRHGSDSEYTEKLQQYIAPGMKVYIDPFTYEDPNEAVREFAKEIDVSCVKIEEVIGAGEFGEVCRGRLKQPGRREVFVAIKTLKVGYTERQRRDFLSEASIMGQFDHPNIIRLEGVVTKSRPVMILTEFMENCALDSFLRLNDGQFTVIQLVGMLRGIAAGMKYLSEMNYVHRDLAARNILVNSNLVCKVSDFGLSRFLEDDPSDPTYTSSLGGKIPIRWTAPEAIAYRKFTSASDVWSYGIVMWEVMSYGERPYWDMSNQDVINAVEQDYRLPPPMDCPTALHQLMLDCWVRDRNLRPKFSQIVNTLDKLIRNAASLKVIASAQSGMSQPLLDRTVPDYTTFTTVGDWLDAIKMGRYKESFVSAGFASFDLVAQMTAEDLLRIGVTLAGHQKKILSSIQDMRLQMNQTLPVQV

[20] = target: Serine/threonine-protein kinase PAK 2 (Homo sapiens) (UniProt Q13177); details: Compound concentration 1000.0 nM
[21] = target: Death-associated protein kinase 3 (Homo sapiens) (UniProt O43293); details: Compound concentration 1000.0 nM
[22] = target: Serine/threonine-protein kinase 38-like (Homo sapiens) (UniProt Q9Y2H1); details: Compound concentration 1000.0 nM
[23] = system: Epidermal growth factor receptor (Homo sapiens), P00533 [T790M]; details: Compound concentration 1000.0 nM
[24] = target: Epidermal growth factor receptor (Homo sapiens) (UniProt P00533); details: Compound concentration 1000.0 nM
[25] = system: Tyrosine-protein kinase ABL1 (Homo sapiens), P00519 [F317L]; details: Compound concentration 1000.0 nM
[26] = target: Mitogen-activated protein kinase kinase kinase 10 (Homo sapiens) (UniProt Q02779); details: Compound concentration 1000.0 nM
[27] = target: BDNF/NT-3 growth factors receptor (Homo sapiens) (UniProt Q16620); details: Compound concentration 1000.0 nM
[28] = target: SNF-related serine/threonine-protein kinase (Homo sapiens) (UniProt Q9NRH2); details: Compound concentration 1000.0 nM
[29] = target: Vascular endothelial growth factor receptor 1 (Homo sapiens) (UniProt P17948); details: Compound concentration 1000.0 nM
[30] = target: Mitotic checkpoint serine/threonine-protein kinase BUB1 (Homo sapiens) (UniProt O43683); details: Compound concentration 1000.0 nM
[31] = target: Casein kinase I isoform gamma-2 (Homo sapiens) (UniProt P78368); details: Compound concentration 1000.0 nM
[32] = target: Serine/threonine-protein kinase Nek3 (Homo sapiens) (UniProt P51956); details: Compound concentration 1000.0 nM
[33] = target: D(3) dopamine receptor (Homo sapiens) (UniProt P35462); details: Compound concentration 10.0 uM
[34] = target: Mitogen-activated protein kinase kinase kinase kinase 4 (Homo sapiens) (UniProt O95819); details: Compound concentration 1000.0 nM
Mitogen-activated protein kinase kinase kinase kinase 4 (Homo sapiens), sequence (O95819 2-1239 limits assumed): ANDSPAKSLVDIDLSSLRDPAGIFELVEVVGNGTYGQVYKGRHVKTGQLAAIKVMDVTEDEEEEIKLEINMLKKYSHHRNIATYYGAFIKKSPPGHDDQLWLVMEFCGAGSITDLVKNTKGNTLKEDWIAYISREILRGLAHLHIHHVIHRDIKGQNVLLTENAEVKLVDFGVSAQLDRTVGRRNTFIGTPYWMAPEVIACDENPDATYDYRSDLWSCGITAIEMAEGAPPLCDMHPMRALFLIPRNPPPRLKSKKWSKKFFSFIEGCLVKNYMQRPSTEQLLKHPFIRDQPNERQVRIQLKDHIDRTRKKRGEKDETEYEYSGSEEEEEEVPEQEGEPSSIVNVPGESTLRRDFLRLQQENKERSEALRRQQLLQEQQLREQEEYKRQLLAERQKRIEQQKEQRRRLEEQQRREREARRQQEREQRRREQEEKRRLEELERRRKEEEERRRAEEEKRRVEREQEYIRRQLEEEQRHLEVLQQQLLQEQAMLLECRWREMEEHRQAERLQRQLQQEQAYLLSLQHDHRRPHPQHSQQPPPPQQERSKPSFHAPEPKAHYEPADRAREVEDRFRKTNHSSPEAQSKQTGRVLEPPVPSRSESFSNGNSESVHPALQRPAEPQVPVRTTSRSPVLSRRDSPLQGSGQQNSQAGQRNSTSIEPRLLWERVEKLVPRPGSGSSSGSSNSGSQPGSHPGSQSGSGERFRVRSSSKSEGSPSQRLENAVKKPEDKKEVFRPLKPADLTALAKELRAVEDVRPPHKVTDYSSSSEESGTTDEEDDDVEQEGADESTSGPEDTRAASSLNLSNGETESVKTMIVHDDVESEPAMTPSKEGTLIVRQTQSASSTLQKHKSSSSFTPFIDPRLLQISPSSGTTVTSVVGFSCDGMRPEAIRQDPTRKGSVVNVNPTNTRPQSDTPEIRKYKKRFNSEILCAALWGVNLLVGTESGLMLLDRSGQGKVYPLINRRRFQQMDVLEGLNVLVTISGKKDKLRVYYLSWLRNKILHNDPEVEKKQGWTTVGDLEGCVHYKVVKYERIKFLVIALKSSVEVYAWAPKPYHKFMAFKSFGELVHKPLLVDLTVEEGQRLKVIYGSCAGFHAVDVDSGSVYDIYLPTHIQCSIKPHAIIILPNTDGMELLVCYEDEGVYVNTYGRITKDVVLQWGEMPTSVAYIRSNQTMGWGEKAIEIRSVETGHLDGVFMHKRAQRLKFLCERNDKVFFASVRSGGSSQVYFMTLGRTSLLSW

[35] = target: MAP/microtubule affinity-regulating kinase 4 (Homo sapiens) (UniProt Q96L34); details: Compound concentration 1000.0 nM
[36] = target: Serine/threonine-protein kinase MARK1 (Homo sapiens) (UniProt Q9P0L2); details: Compound concentration 1000.0 nM
[37] = target: Serine/threonine-protein kinase VRK2 (Homo sapiens) (UniProt Q86Y07); details: Compound concentration 1000.0 nM
[38] = target: Serine/threonine-protein kinase Sgk2 (Homo sapiens) (UniProt Q9HBY8); details: Compound concentration 1000.0 nM
[39] = target: Dual specificity tyrosine-phosphorylation-regulated kinase 1A (Homo sapiens) (UniProt Q13627); details: Compound concentration 1000.0 nM

O=C(NC[C@@H]1[C@H]2CN(C(=O)OCc3cc(C(F)(F)F)cc(C(F)(F)F)c3)C[C@@H]12)c1ccc2[nH]nnc2c1 [BI 2545]
residual activity [1]: 100%
residual activity [2]: 92%
residual activity [3]: 100%
residual activity [4]: 87%
inhibition [5]: 14.3%
residual activity [6]: 77%
residual activity [7]: 99%
residual activity [8]: 86%
residual activity [9]: 100%
residual activity [10]: 77%
residual activity [11]: 100%
residual activity [12]: 100%
residual activity [13]: 100%
residual activity [14]: 90%
residual activity [15]: 96%
residual activity [16]: 86%
residual activity [17]: 98%
residual activity [18]: 95%
residual activity [19]: 81%
residual activity [20]: 100%
residual activity [21]: 94%
residual activity [22]: 45%
residual activity [23]: 78%
residual activity [24]: 99%
residual activity [25]: 88%
residual activity [26]: 83%
residual activity [27]: 99%
residual activity [28]: 77%
residual activity [29]: 82%
residual activity [30]: 61%
residual activity [31]: 100%
residual activity [32]: 100%
inhibition [33]: 6.61%
residual activity [34]: 100%
residual activity [35]: 94%
residual activity [36]: 98%
residual activity [37]: 100%
residual activity [38]: 66%
residual activity [39]: 86%

Cc1nccc(COC(=O)N2C[C@@H]3[C@@H](CNC(=O)c4ccc5[nH]nnc5c4)[C@@H]3C2)n1 [BI 3017]
residual activity [1]: 100%
residual activity [2]: 100%
residual activity [3]: 100%
residual activity [4]: 100%
inhibition [5]: 2.2%
residual activity [6]: 94%
residual activity [7]: 82%
residual activity [8]: 80%
residual activity [9]: 100%
residual activity [10]: 100%
residual activity [11]: 100%
residual activity [12]: 100%
residual activity [13]: 93%
residual activity [14]: 84%
residual activity [15]: 89%
residual activity [16]: 65%
residual activity [17]: 100%
residual activity [18]: 100%
residual activity [19]: 100%
residual activity [20]: 100%
residual activity [21]: 92%
residual activity [22]: 70%
residual activity [23]: 91%
residual activity [24]: 82%
residual activity [25]: 90%
residual activity [26]: 85%
residual activity [27]: 100%
residual activity [28]: 98%
residual activity [29]: 100%
residual activity [30]: 90%
residual activity [31]: 96%
residual activity [32]: 100%
inhibition [33]: 1.07%
residual activity [34]: 99%
residual activity [35]: 85%
residual activity [36]: 84%
residual activity [37]: 29%
residual activity [38]: 100%
residual activity [39]: 81%
